From article PMC9518609, “Design and synthesis of new trimethoxylphenyl-linked combretastatin analogues loaded on diamond nanoparticles as a panel for ameliorated solubility and antiproliferative activity” (Journal of Enzyme Inhibition and Medicinal Chemistry, 2022) come the findings set out here.

The IC50 is the concentration that inhibits the measured activity by half. A high value points to weaker potency.

Holding throughout (assay type): cell-based
One test relates to MDA-MB-231. Briefly: MTT cytotoxic activity against breast MDA-MB-231 cancer cell line. The settings on record: MTT assay, 24 h treatment. An excerpt: All the synthesised compounds were screened for their cytotoxic activity against breast MDA-MB-231 cancer cell line and compounds 6 and 12 against breast MCF-10A cell line taking CA-4 as a positive control for the analysis. The in vitro cytotoxicity results of the prepared compounds were systematised in Table 1. […] Structurally, the prepared molecules contain three structural variations; including rotatable hydrazide derivatives, the core exchange with imidazolone ring, and the ring expansion with triazinone motif. […] It is noticed that directly attached benzene ring to triazinone scaffold (compound 6) or bioisosteric group (thiazolyl ester) as in compound 12, may contribute to the astonishing cytotoxicity against breast MDA-MB-231 cancer cells.
To measure the cytotoxic activity of the synthesised derivatives 2a–13e in breast cancer (MDA-MB-231) cell line. MTT assay method was applied to assess cell viability assay. All experimental steps were conducted as reported earlier.
Part I: Biological Studies
4.3. Biological evaluation
4.3.1. Cytotoxic activity evaluation
The cytotoxic actvity of the synthesized derivatives 2a-13e was measured in MDA-MB-231 breast cancer cell line and derivatives 6 and 12 in MCF-10A […].
Cell viability assay was assessed using MTT assay method. Cells at density of 1 x 104 were seeded in a 96-well plate at 37 °C for 24 h under 5% CO2. After incubation, the cells were treated with different concentrations of the test schiff bases 2a-13e and incubated for 24 h, then 20 µl of MTT solution at 5 mg/mL was applied and incubated for 4 h at 37 °C.
Dimethyl sulphoxide (DMSO) in volume of 100 µl was added to each well to dissolve the purple formazan that had formed. The color intensity of the formazan product, which represents the growth condition of the cells, is quantified by using an ELISA plate reader (EXL 800, USA) at 570 nm absorbance. The experimental conditions were carried out with at least three replicates, and the experiments were repeated at least three times. […]
(In general: Tetrazolium assays rely on reduction of a dye to a coloured formazan, in cell work by metabolically active cells.)

The next test deals with caspase 3/7. In words: Caspase 3/7 green flow cytometry assay in MDA-MB-231 cells. As to conditions: MDA-MB-231, at IC50, 24 h. An excerpt:
Further, it is important to check effector caspase 3/7. The cleavage of caspases is specifically responsible for programmed cell death and apoptosis. […] The results were shown in Figure 5 and the expression level of caspase 3/7 was increased when compared with no control cells.
Caspase 3/7 in MDA-MB-231 cells was detected using CellEvent® Caspase 3/7 Green Detection Flow Cytometry Assay Kit. Caspase 3/7 activity in the MDA-MB-231 cell line was detected in the presence of compounds 6 and 12 at their IC50 concentration (µM) using CellEvent® caspase 3/7 green detection flow cytometry assay kit according to the manufacturer’s directions. All experimental steps were conducted as reported earlier.
4.3.4.3. Caspase 3/7 assay for compounds 6 and 12
Caspase 3/7 in MDA-MB-231 cells was investigated using CellEvent® Caspase 3/7 Green Detection Flow Cytometry Assay Kit. Caspase 3/7 activity in MDA-MB-231 cell line was detected in the presence of compounds 6 and 12 at their IC50 concentration (µM) using CellEvent® caspase 3/7 green detection flow cytometry assay kit according to manufacturer’s directions. […] cells at a density of 2.5 × 10^5 per well were harvested and washed with ice cold PBS, and cell lysates were prepared and combined with reaction buffer and incubated with specific colorimetric substrates (Caspase 3/7 Detection Reagent) at 37 °C for 6 h. Detection reagent is composed of DNA binding dye conjugated to caspase 3 and caspase 7 recognition sequence (DEVD) by a short peptide linker. The released DNA binding dye binds DNA producing a bright and stable signal. Finally, the samples were analyzed at 488 nm in a BD FACS Calibur flow cytometer. All experiments were performed in triplicates.
Information Classification: General 4
Background: In flow cytometry, cells or beads pass a laser one at a time.

The next test concerns MDA-MB-231 cells. Briefly: Annexin V-FITC/PI apoptosis staining assay. As to conditions: MDA-MB-231, at IC50, 24 h; for percentage of late apoptotic cells (upper right quadrant): untreated control 0.13%. As for the experimental part:
The effect of compounds 6 and 12 on apoptosis percentage rate was carried out using annexin V-FITC/Propidium iodide (PI) biparametric cytofluorimetric double staining analysis in MDA-MB-231 cells.
Apoptosis in MDA-MB-231 cells was investigated using a fluorescent Annexin V-FITC/PI detection kit (BioVision Annexin V-FITC Apoptosis Detection Kit, Catalog #: K101) by flow cytometry assay. All experimental steps were conducted as reported earlier. […]
4.3.4.1. Apoptosis assay for compounds 6 and 12
Apoptosis in MDA-MB-231 cells was investigated using fluorescent Annexin V-FITC/ PI detection kit (BioVision Annexin V-FITC Apoptosis Detection Kit, Catalog #: K101) by flow cytometry assay. MDA-MB-231 cells at a density of 2 × 10^5 per well were treated […]
stained with Annexin V-FITC/ PI dye for 15 min in the dark at 37 °C. […]
All experiments were done in triplicates. […]

`COc1cc(C=C2N=C(c3cc(OC)c(OC)c(OC)c3)N(c3ccccc3)NC2=O)cc(OC)c1OC` [Compound 6, 2-phenyl-5-(3,4,5-trimethoxybenzylidene)-3-(3,4,5-trimethoxyphenyl)-1,2-dihydro-1,2,4-triazin-6(5H)-one] registered an IC50 in the test with MDA-MB-231 (Homo sapiens, MDA-MB-231) of 1360 ± 100 nM. Also, in the test with caspase 3/7, the “Casp3/7 (percentage of activated caspase 3/7)” value is 12.87% and the “increase in caspase 3/7 activation relative to untreated control” value is recorded as “about 15.70 fold”. Moreover, in the test with MDA-MB-231 cells, the “increase of percentage of early apoptotic cells relative to no treatment control” value was found to be 6.80 fold, the “increase of percentage of total apoptotic cells compared with no treatment control” value worked out at 21.86 fold and the “percentage of late apoptotic cells (upper right quadrant)” value stood at 23.28%.

Take “ethyl 2-(2-(6-oxo-5-(3,4,5-trimethoxybenzylidene)-3–(3,4,5-trimethoxyphenyl)-5,6-dihydro-1,2,4-triazin-2(1H)-yl)thiazol-4-yl)acetate [Compound 12]”: 1710 ± 110 nM corresponded to half-maximal inhibition in the test with MDA-MB-231 (IC50). In the test with caspase 3/7, the “Casp3/7 (percentage of activated caspase 3/7)” value came out at 7.51% and the “increase in caspase 3/7 activation relative to untreated control” value is approximately 9.16 fold. In the test on MDA-MB-231 cells, the “increase of percentage of early apoptotic cells relative to no treatment control” value is listed as 4.36 fold, the “increase of percentage of total apoptotic cells compared with no treatment control” value is 14.98 fold and the “percentage of late apoptotic cells (upper right quadrant)” value worked out at 17.68%.
